Drawing on ChEMBL document CHEMBL2073928, “Overlapping substrate specificities and tissue distribution of cytochrome P450 3A and P-glycoprotein: implications for drug delivery and activity in cancer chemotherapy” (Mol Carcinog, 1995), this text covers Activity for one compound.

Format in all cases: functional, organism-based
The target in data set [1] is ATP-dependent translocase ABCB1 (Rattus norvegicus, UniProt P43245). Kind of data set: (§1) TP_TRANSPORTER: RT-PCR in vivo Wistar rat, liver.
Data set [2] addresses Multidrug resistance protein 1a (Rattus norvegicus) (UniProt Q6PSM0). In words: TP_TRANSPORTER: Western in vivo Wistar rat, liver.
The target is the same in data set [3]. The data set is described as §1.

Multidrug resistance protein 1a (Rattus norvegicus), sequence (Q6PSM0 as listed by the source): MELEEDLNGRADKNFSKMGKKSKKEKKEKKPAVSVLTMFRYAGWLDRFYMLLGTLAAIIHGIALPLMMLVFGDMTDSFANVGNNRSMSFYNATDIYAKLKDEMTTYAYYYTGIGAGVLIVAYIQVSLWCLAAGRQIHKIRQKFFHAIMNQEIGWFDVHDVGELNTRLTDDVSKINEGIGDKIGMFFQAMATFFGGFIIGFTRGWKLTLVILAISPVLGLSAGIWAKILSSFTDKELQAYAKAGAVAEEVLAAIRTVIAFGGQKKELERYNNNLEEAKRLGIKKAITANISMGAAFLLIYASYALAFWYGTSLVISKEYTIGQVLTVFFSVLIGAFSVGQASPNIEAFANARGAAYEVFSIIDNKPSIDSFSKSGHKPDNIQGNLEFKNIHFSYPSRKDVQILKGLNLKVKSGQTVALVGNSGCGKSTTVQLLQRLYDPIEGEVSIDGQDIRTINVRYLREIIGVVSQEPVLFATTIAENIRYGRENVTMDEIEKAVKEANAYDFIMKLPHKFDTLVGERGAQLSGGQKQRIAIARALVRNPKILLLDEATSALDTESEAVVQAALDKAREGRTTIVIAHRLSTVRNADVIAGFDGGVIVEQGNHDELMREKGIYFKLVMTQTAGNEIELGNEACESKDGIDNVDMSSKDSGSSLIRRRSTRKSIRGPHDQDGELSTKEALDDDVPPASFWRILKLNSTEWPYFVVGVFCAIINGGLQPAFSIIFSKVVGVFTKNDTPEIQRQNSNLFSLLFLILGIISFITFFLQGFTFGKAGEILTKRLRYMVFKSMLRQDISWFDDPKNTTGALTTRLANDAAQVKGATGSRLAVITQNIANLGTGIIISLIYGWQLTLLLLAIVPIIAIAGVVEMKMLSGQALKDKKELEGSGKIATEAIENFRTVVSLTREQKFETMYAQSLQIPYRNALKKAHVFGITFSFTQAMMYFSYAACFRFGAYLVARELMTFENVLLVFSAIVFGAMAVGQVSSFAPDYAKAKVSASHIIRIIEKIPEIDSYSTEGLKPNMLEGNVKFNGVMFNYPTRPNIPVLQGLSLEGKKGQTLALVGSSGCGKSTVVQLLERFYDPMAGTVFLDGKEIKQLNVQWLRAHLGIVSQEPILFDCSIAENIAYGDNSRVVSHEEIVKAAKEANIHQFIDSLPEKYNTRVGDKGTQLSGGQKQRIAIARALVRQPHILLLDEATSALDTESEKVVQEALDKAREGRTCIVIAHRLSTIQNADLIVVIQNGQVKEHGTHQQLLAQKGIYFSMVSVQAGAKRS
ATP-dependent translocase ABCB1, sequence (P43245 whole entry): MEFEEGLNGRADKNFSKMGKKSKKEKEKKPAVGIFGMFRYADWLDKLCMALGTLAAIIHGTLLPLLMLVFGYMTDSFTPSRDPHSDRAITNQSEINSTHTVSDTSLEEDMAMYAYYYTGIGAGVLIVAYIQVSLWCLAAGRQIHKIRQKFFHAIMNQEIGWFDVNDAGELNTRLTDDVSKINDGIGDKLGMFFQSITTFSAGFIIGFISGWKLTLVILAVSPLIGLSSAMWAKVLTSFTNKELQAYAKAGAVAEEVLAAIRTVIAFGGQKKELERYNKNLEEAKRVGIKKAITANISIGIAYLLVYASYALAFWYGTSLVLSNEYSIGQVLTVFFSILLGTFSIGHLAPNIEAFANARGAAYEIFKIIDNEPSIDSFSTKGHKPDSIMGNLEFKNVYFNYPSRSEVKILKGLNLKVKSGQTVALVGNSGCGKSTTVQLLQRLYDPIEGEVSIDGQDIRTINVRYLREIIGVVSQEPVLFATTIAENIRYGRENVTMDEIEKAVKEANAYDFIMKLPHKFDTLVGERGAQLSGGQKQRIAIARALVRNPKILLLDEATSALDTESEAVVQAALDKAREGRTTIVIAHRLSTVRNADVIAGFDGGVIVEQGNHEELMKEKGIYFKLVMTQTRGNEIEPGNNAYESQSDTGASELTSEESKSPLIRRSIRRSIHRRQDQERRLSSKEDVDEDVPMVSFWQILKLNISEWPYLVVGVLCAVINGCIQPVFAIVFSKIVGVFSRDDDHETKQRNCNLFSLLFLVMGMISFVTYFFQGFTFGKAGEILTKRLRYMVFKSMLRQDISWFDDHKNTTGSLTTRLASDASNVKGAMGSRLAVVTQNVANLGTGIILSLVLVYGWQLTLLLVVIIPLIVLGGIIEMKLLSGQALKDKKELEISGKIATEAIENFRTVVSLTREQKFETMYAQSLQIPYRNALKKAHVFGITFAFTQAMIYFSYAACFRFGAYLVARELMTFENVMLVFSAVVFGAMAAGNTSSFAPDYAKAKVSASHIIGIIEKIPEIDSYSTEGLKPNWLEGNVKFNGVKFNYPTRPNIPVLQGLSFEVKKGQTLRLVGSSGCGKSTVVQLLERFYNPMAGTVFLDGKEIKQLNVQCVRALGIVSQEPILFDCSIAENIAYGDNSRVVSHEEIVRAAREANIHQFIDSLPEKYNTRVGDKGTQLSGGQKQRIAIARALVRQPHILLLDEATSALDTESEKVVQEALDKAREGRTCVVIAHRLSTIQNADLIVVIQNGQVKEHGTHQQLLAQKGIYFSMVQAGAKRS

In the case of `CC(=O)Nc1ccc2c(c1)Cc1ccccc1-2` [2-ACETYLAMINOFLUORENE], the Activity entry in data set [1], in data set [2] and in data set [3] was “inducer [+]” throughout.
